What all share (experiment): DTP human tumour cell line panel, 48 h
The test system of assay [1] is U251 CNS.
The subject of assay [2] is UACC-257 melanoma.
Assay [3] has as its system M14 melanoma.
Assay [4] concerns NCI-H460 lung.
Assay [5] relates to A498 renal.
Assay [6] concerns SK-MEL-2 melanoma.
The subject of assay [7] is IGROV1 ovarian.
Assay [8] has as its system MOLT-4 leukemia.
Assay [9] concerns SNB-75 CNS.
Assay [10] concerns EKVX NSCLC.

Results on nine molecules are retold here after PubChem BioAssay (NCI).

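A five-concentration, 48-hour dose response in 96-well plates underlies each endpoint, interpolated linearly between surrounding concentrations. GI50 = concentration required for 50% inhibition of growth. TGI: concentration producing complete growth inhibition.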

Usually GI50 stands for the concentration giving 50% growth inhibition. A word on the TGI: it is the concentration at which net growth stops. In the case of `O=C1c2ccccc2-c2ccccc2C1(Cl)Cl`, the GI50 in assay [1] was 0.314 µM; in [2] it was 0.203 µM; in [3] it was 1.26 µM; in assay [4], 1.91 µM; in assay [5] it was 1.09 µM; in [6] it was 1.52 µM. For the same molecule, the GI50 is 1.13 µM in [7], 2.19 µM in assay [8], 1.62 µM in [9] and 1.46 µM in assay [10]. The TGI stood at 1.07 µM in assay [1]; 0.476 µM in [2]; 2.65 µM in assay [3]; 3.97 µM in assay [4]; 2.77 µM in [5]; 3.02 µM in [6]. In addition, the total growth inhibition concentration (TGI) was 2.54 µM in assay [7], 7.09 µM in [8], 3 µM in [9] and 2.88 µM in [10].
Regarding `COC1/C=C/OC2(C)Oc3c(C)c(O)c4c(O)c(c(C=NOC(c5ccccc5)c5ccccc5)c(O)c4c3C2=O)NC(=O)/C(C)=C/C=C/C(C)C(O)C(C)C(O)C(C)C(OC(C)=O)C1C` (stereo not given), the GI50 in [1] is 0.975 µM; in [2], 1.14 µM; in assay [3] it was 1.18 µM; in assay [4], 1.05 µM; in [5] it was 1.18 µM; in assay [6], 1.05 µM. Also, the GI50 in assay [7] was 1.72 µM; in assay [8], 1.8 µM; in [9], 1.34 µM; in assay [10], 1.82 µM. In addition, the TGI in assay [1] came out at 1.96 µM; in assay [2] it was 3.08 µM; in assay [3], 2.82 µM; in assay [4], 2.18 µM; in assay [5], 4.6 µM; in [6] it was 2.54 µM. Besides, the total growth inhibition concentration (TGI) in assay [7] was 5.54 µM; in [8], 8.03 µM; in [9], 5.73 µM; in assay [10], 7.67 µM.
Turning to `CCCCCCn1c2c(c3c(O)cccc31)C(=O)c1ccccc1-2`, the GI50 in assay [1] was 17.8 µM; in assay [2], 15.1 µM; in assay [3], 15.7 µM; in assay [4], 17.6 µM; in assay [5], 18.9 µM; in assay [6], 18.9 µM. In addition, the GI50 is 19.2 µM in [7], 28.7 µM in assay [8], 46.3 µM in assay [9] and 20.1 µM in assay [10]. Further, the TGI was 32.9 µM in assay [1]; 32.9 µM in assay [2]; 30.2 µM in assay [3]; 35.8 µM in assay [4]; 33.2 µM in assay [5]; 37.9 µM in assay [6]. In addition, the TGI in [7] is 39.6 µM; in assay [8], > 100 µM; in assay [9], > 100 µM; in [10] it was 43.5 µM.
On to `CCOC(=O)Cn1c(=O)[nH]c(=O)c2[nH]cnc21`, for which the TGI in [1], in assay [2], in assay [3], in [4], in [5] and in [6] was > 100 µM throughout. Further, the TGI in assay [7], in assay [8], in assay [9] and in assay [10] was > 100 µM each time.
Consider `O=C1NC(Cc2ccccc2)C(=O)N2CCCC12` (stereo not given), for which the TGI in [1], in [2], in assay [3], in assay [4], in assay [5] and in [6] was > 100 µM throughout. Also, the TGI in assay [7], in assay [8], in assay [9] and in assay [10] was > 100 µM in each case.
On to `O=C(Nc1nc(-c2ccccc2Cl)cs1)c1cc(-c2ccc(Cl)cc2)nc2ccc(Cl)cc12`, for which the GI50 in assay [1] is 3.42 µM; in [2], 14.9 µM; in assay [3], 0.918 µM; in assay [4], 31.8 µM; in assay [5], 27.4 µM; in assay [6], 7.81 µM. For the same molecule, the GI50 in assay [7] is 2.99 µM; in assay [8], 3.42 µM; in assay [9], 3.38 µM; in assay [10] it was 7.18 µM. In addition, the TGI in [1] is 28.6 µM; in assay [2], > 100 µM; in [3], 4.76 µM; in [4], > 100 µM; in [5], > 100 µM; in assay [6] it was > 100 µM. Further, the TGI in assay [7], in assay [8], in [9] and in assay [10] was > 100 µM each time.
On to `C/C(CC(=O)Nc1ccc([N+](=O)[O-])cc1)=N\Nc1ccc([N+](=O)[O-])cc1[N+](=O)[O-]`, for which the TGI in assay [1], in [2], in [3], in assay [4], in assay [5] and in assay [6] was > 100 µM throughout. Also, the TGI in assay [7], in assay [8], in assay [9] and in assay [10] was > 100 µM in each case.
Take `CS(=O)(=O)c1ccc(-c2cnc(NCc3ccco3)n3cnnc23)cc1`: the GI50 in assay [1] was > 100 µM; in [2], 24.7 µM; in assay [3], 27 µM; in assay [4], > 100 µM; in assay [5], > 100 µM; in assay [6] it was 66.6 µM. Further, the GI50 was > 100 µM in assay [7], 37.4 µM in assay [8], > 100 µM in assay [9] and > 100 µM in assay [10]. Besides, the TGI in [1], in [2], in [3], in [4], in assay [5] and in assay [6] was > 100 µM each time. Moreover, the TGI in [7], in [8], in assay [9] and in assay [10] was > 100 µM each time.
As for `CN(CCCCN)c1ccc2c(=O)[nH][nH]c(=O)c2c1`, the TGI in [1], in assay [2], in assay [3], in [4], in assay [5] and in assay [6] was > 100 µM throughout. Besides, the TGI in [7] is > 73.6 µM; in assay [8], > 100 µM; in assay [9], > 100 µM; in [10], > 100 µM.
